The values that follow are results of earlier work, collected in patent US20210319872A1, “DRUG AND DEVICE COMBINATION PRODUCTS WITH IMPROVED SAFETY AND EFFICACY PROFILES” (priority 2016, published 2021).

[1] abbreviates: refractory oropharyngeal candidiasis.
The mark [2] stands for this setting: nonvalvular atrial fibrillation.
Where [3] appears, read: chronic hepatitis C-associated thrombocytopenia.
[4] abbreviates: chronic idiopathic thrombocytopenic purpura.

Where two headings read alike, the source gives them in different places. Bounds are passed on as bounds.

`CNCCC=C1c2ccccc2CCc2ccccc21` [Nortriptyline (Pamelor)]: where the note is “in vivo”, the “Common side effects, listed without incidence” value is recorded as “Gastrointestinal: Constipation”.

For the compound `CC[C@@H]([C@H](C)O)n1ncn(-c2ccc(N3CCN(c4ccc(OC[C@@H]5CO[C@@](Cn6cncn6)(c6ccc(F)cc6F)C5)cc4)CC3)cc2)c1=O` [Noxafil], where the note is “frequency in words”, the Cholestasis result is “Hepatic: Cholestasis (rare), Liver failure (rare)” and the Liver failure result was “Hepatic: Cholestasis (rare), Liver failure (rare)”. The Torsades de pointes entry (in vivo) is “pointes (less than 5%)”. Also, under “oropharyngeal candidiasis”, the Diarrhea entry is “oropharyngeal candidiasis, 10%; refractory oropharyngeal”; the Fever is 6%; the Headache was 8%; the Nausea result is “oropharyngeal candidiasis, 9%; refractory oropharyngeal”. Further, the Vomiting result (oropharyngeal candidiasis) is “oropharyngeal candidiasis, 7%; refractory oropharyngeal”. Under setting [1], the Diarrhea is given as 13%, the Fever is recorded as 34%, the Headache was 20% and the Nausea is recorded as 29%. The Vomiting entry under setting [1] was “candidiasis, 28%)”.

Turning to `Cc1cc2c(s1)Nc1ccccc1N=C2N1CCN(C)CC1` [Olanzapine (Zyprexa)], for the setting “in vivo”, the Akathisia result is on record as “Neurologic: Akathisia (5% to 27%), Asthenia (2% to 20%),”; the Asthenia result is listed as “Neurologic: Akathisia (5% to 27%), Asthenia (2% to 20%),”; the Constipation result is reported as “Gastrointestinal: Constipation (4% to 11%), Xerostomia (Adult, up”; the Dizziness entry was “Dizziness (Adult, 1.6% to 18%; adolescent, 7% to 8%),”. Further, under “in vivo”, the Hyperprolactinemia result is “adolescent, up to 14%), Hyperprolactinemia (30% to 61.1%),”; the Increased appetite result was “Increased appetite (Adult, 3% to 24%; adolescent, 17% to 29%),”; the Orthostatic hypotension entry is reported as “Cardiovascular: Orthostatic hypotension (More than 5%),”; the Peripheral edema result is reported as “Peripheral edema (3% to 6%)”. Further, under “in vivo”, the Personality disorder entry is “Psychiatric: Personality disorder (8%)”; the Serum triglycerides raised entry was “Serum triglycerides raised (20.8% to 40%), Weight increased, 7%”; the Somnolence result is listed as “Somnolence (IM, 6%; oral, 20% to 52%), Tremor (1% to 23%)”; the Tremor entry is “Somnolence (IM, 6%; oral, 20% to 52%), Tremor (1% to 23%)”. Also, the Somnolence entry (in vivo, po) is given as “Somnolence (IM, 6%; oral, 20% to 52%), Tremor (1% to 23%)”.

In the case of `CN1CC[C@]23c4c5ccc(O)c4O[C@H]2C(=O)CC[C@@]3(O)[C@H]1C5` [Oxymorphone, reference compound], under “in vivo”, the Abdominal pain entry was “Gastrointestinal: Abdominal pain (1% to less than 10%),”; the Bowel obstruction result is given as “Gastrointestinal: Bowel obstruction (less than 1%)”; the Constipation entry is “Constipation (4.1% to 27.6%), Nausea (2.9% to 33.1%), Vomiting”; the Fatigue entry is reported as “Other: Fatigue (1% to less than 10%), Fever (1% to 14.2%)”. Further, for the setting “in vivo”, the Fever entry is on record as “Other: Fatigue (1% to less than 10%), Fever (1% to 14.2%)”; the Headache was 17%), Headache (4% to 12%), Somnolence (2% to 19%); the Hypotension result is given as “Cardiovascular: Hypotension (less than 10%)”; the Hypoxia is listed as less than 10%). Under “in vivo”, the Nausea entry was “Constipation (4.1% to 27.6%), Nausea (2.9% to 33.1%), Vomiting”; the Pruritus result is “Dermatologic: Pruritus (less than or equal to 15.2%), Sweating”; the “Serious side effect, Neurologic” value is given as “Neurologic: Coma”; the “Serious side effect, Respiratory” value is listed as “Respiratory: Respiratory depression”. In addition, under “in vivo”, the Somnolence is listed as 17%), Headache (4% to 12%), Somnolence (2% to 19%); the Sweating symptom result is listed as “symptom (1% to less than 10%)”; the Vomiting result was “(less than or equal to 15.6%), Xerostomia (1% to less than 10%)”; the Xerostomia result is reported as “(less than or equal to 15.6%), Xerostomia (1% to less than 10%)”.

For `Fc1ccc([C@@H]2CCNC[C@H]2COc2ccc3c(c2)OCO3)cc1` [Paroxetine (Paxil)], where the note is “in vivo”, the Abnormal ejaculation entry was “Reproductive: Abnormal ejaculation (13% to 28%), Erectile”; the Asthenia entry is reported as “Neurologic: Asthenia (up to 22%), Dizziness (6% to 14%),”; the Constipation entry was “Gastrointestinal: Constipation (up to 16%), Diarrhea (up to 18%),”; the Diaphoresis entry is “Dermatologic: Diaphoresis (5% to 14%)”. Where the note is “in vivo”, the Diarrhea entry is “Gastrointestinal: Constipation (up to 16%), Diarrhea (up to 18%),”; the Dizziness entry was “Neurologic: Asthenia (up to 22%), Dizziness (6% to 14%),”; the Erectile dysfunction result is “dysfunction (2% to 9%), Orgasm disorder (females; 2% to 9%),”; the Headache result is “Headache (17% to 27%), Insomnia (up to 24%), Somnolence (up to”. Moreover, under “in vivo”, the Nausea entry is reported as “Loss of appetite (up to 9%), Nausea (up to 26%), Xerostomia (9%”; the Orgasm disorder result is on record as “dysfunction (2% to 9%), Orgasm disorder (females; 2% to 9%),”; the Palpitations entry is “Cardiovascular: Palpitations (up to 3%), Vasodilatation (2% to 4%)”; the Reduced libido result was “Reduced libido (males: 6% to 15%; females: 0% to 9%)”. For the same compound, where the note is “in vivo”, the Seizure entry is “Neurologic: Seizure (0.1%)”; the Somnolence is listed as ≤ 24%), Tremor (4% to 11%); the Tremor is 24%), Tremor (4% to 11%); the Vasodilatation entry is listed as “Cardiovascular: Palpitations (up to 3%), Vasodilatation (2% to 4%)”. Also, under “in vivo”, the Xerostomia entry is recorded as “Loss of appetite (up to 9%), Nausea (up to 26%), Xerostomia (9%” and the Yawning entry is on record as “Respiratory: Yawning (4%)”.

Regarding `CCC[C@H](N[C@@H](C)C(=O)N1[C@H](C(=O)O)C[C@@H]2CCCC[C@@H]21)C(=O)OCC` [Perindopril (Aceon)], under “in vivo”, the Angioedema result was “Other: Angioedema (0.1% to 0.5%)”; the Backache result is “Musculoskeletal: Backache (5.8%)”; the Cough entry is on record as “Respiratory: Cough (12%)”; the Dizziness entry is “Neurologic: Asthenia, Dizziness (8.2%), Headache”. The Orthostatic hypotension result (in vivo) is given as “Cardiovascular: Cardiac arrest, Orthostatic hypotension (0.8%)”.

Regarding `CCCCCCOC(=O)NC(=N)c1ccc(NCc2nc3cc(C(=O)N(CCC(=O)OCC)c4ccccn4)ccc3n2C)cc1` [Pradaxa], the Gastroesophageal reflux disease result (Atrial fibrillation) is recorded as “disease (Atrial fibrillation, 5.5%), Gastrointestinal hemorrhage”. Where the note is “DVT and pulmonary embolism”, the Indigestion result is recorded as “pulmonary embolism, 7.5%)” and the Intracranial hemorrhage is listed as 0.1%. Besides, where the note is “DVT and pulmonary embolism prophylaxis”, the Bleeding is given as 10.5%. Under “listed without frequency”, the “Serious side effect, Hematologic” value is reported as “Thrombosis”; the “Serious side effect, Immunologic” value is “Immunologic: Anaphylaxis”; the “Serious side effect, Respiratory” value is on record as “Respiratory: Bleeding, Alveolar”. Moreover, under setting [2], the Bleeding is 16.6%; the “Bleeding, Major” value was 3.3%; the Gastrointestinal hemorrhage is reported as 6.1%; the “Gastrointestinal hemorrhage, Major” value was 1.6%). Also, under setting [2], the Intracranial hemorrhage result was “(nonvalvular atrial fibrillation, 0.3%; DVT and pulmonary”; the Myocardial infarction was 0.7%.

Take `CCCN[C@H]1CCc2nc(N)sc2C1` [Pramipexole (Mirapex)]: under “in vivo”, the Amnesia entry is reported as “Neurologic: Amnesia (4% to 6%), Asthenia (Immediate-release,”; the Asthenia was 10% to 14%; extended-release, 3%), Confusion (4% to 10%),; the Confusion is given as 10% to 14%; extended-release, 3%), Confusion (4% to 10%),; the Dizziness result is “Dizziness (Immediate-release, 3% to 26%; extended-release, 2% to”. Also, for the setting “in vivo”, the Dream disorder was ≤ 12%), Dream disorder (Up to 11%), Dyskinesia (Immediate-; the Dyskinesia entry is listed as “release, 18% to 47%; extended-release, 17%), Extrapyramidal”; the Extrapyramidal movements entry is given as “movements (28%), Headache (Immediate-release, 4% to 16%;”; the Hallucinations entry was “Psychiatric: Hallucinations (5% to 17%)”. Besides, where the note is “in vivo”, the Sleep attack entry is “Neurologic: Sleep attack (2% to 6%), Somnolence (Immediate-” and the Somnolence result was “release, 6% to 33%; extended-release, 15% to 36%)”.

In the case of `CC1=NN(c2ccc(C)c(C)c2)C(=O)/C1=N\Nc1cccc(-c2cccc(C(=O)O)c2)c1O` [Promacta], the AST/SGOT level raised (Adult) is listed as 4%. Also, the Headache result (Chronic hepatitis C-associated thrombocytopenia and aplastic anemia) was “thrombocytopenia and aplastic anemia, 21%; chronic idiopathic”. Moreover, under “aplastic anemia”, the Cough result was “Respiratory: Cough (Aplastic anemia, 23%; chronic ITP, pediatric,”; the Diarrhea was 21%; the Fever was 14%; the Nausea was 33%), Pain in throat (Chronic idiopathic thrombocytopenic. The Pain in throat (aplastic anemia) was 14%. Under “chronic ITP, pediatric”, the ALT/SGPT level raised is listed as 6% and the Cough is 9%. In addition, under setting [3], the Anemia result was “thrombocytopenia, 40%)”; the Diarrhea result is “thrombocytopenia, 19%; chronic idiopathic thrombocytopenic”; the Fever was 30%; the Liver failure entry was “associated thrombocytopenia, 7%), Liver function tests abnormal”. Under setting [3], the Nausea entry is reported as “(Chronic hepatitis C-associated thrombocytopenia, 19%; chronic”; the Portal vein thrombosis entry was “C-associated thrombocytopenia, 1%), Thrombosis (chronic”; the Thrombosis entry was “hepatitis C-associated thrombocytopenia, 3%)”. Also, under setting [4], the Fatigue entry is “purpura, 4%), Fever (Chronic hepatitis C-associated”; the Headache result is on record as “thrombocytopenic purpura, 10%)”; the Pain in throat was 4%. Also, where the note is “chronic idiopathic thrombocytopenic purpura, adults”, the Diarrhea was 9%. Besides, under “chronic idiopathic thrombocytopenic purpura, pediatric”, the Diarrhea is on record as 5%. Besides, under “in vivo”, the Epistaxis is recorded as 13%, the “Liver function tests abnormal” value is listed as “(11%)”, the Pharyngitis is 4% and the “Urinary tract infectious disease” value is “Renal: Urinary tract infectious disease (5%)”. For the same compound, the Vomiting result (in vivo) is “Vomiting (6%)”. Besides, under “listed without frequency”, the “Serious side effect, Hematologic” value is “Hematologic: Bleeding, Portal vein thrombosis (chronic hepatitis”; the “Serious side effect, Hepatic” value is on record as “Hepatic: Hepatotoxicity, Liver failure (chronic hepatitis C-”; the “Serious side effect, Renal” value is on record as “Renal: Acute renal failure”. For the same compound, the AST/SGOT level raised (pediatric) was 5%.

For the compound `CC(C)NCC(O)COc1cccc2ccccc12` (stereo not shown) [Propranolol (Inderal)], where the note is “in vivo”, the Dizziness result is reported as “Neurologic: Dizziness (Hypertension, 4% to 7%), Sleep disorder” and the Fatigue entry is listed as “Other: Fatigue (5% to 7%)”.
